Experimental data: PubChem BioAssay AID248 (DTP/NCI, 2004)
Toxic doses and inconclusive results are not listed. Cut-off read from the data, not from the text of the source: active = T/C of 150% or more; inactive = T/C below 125%.

System: L1210 leukemia ip in BDF1 mice, survival T/C
Experiment: NCI In Vivo Anticancer Drug Screen. Data for tumor model L1210 Leukemia (intraperitoneal) in B6D2F1 (BDF1) mice
Settings: endpoint: mean survival time, higher = longer survival
In short: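 Transplanted-tumor mice were given test agent; controls received vehicle only. Survival readings from the two groups were divided (treated over control).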

[1] = dose: 100.0 mg/kg/injection, schedule: Q04DX003 (ip), vehicle: Klucel (hydroxypropylcellulose) (HPC)
[2] = dose: 200.0 mg/kg/injection, schedule: Q04DX003 (ip), vehicle: Klucel (hydroxypropylcellulose) (HPC)
[3] = dose: 400.0 mg/kg/injection, schedule: Q04DX003 (ip), vehicle: Klucel (hydroxypropylcellulose) (HPC)
[4] = dose: 100.0 mg/kg/injection, schedule: Q01DX001 (ip), vehicle: saline
[5] = dose: 200.0 mg/kg/injection, schedule: Q01DX001 (ip), vehicle: saline
[6] = dose: 75.0 mg/kg/injection, schedule: Q01DX001 (ip), vehicle: saline
[7] = dose: 100.0 mg/kg/injection, schedule: Q01DX009 (ip), vehicle: Klucel (hydroxypropylcellulose) (HPC)
[8] = dose: 200.0 mg/kg/injection, schedule: Q01DX009 (ip), vehicle: Klucel (hydroxypropylcellulose) (HPC)
[9] = dose: 400.0 mg/kg/injection, schedule: Q01DX009 (ip), vehicle: Klucel (hydroxypropylcellulose) (HPC)
[10] = dose: 50.0 mg/kg/injection, schedule: Q01DX001 (ip), vehicle: carboxymethylcellulose (CMC)
[11] = dose: 100.0 mg/kg/injection, schedule: Q01DX001 (ip), vehicle: carboxymethylcellulose (CMC)
[12] = dose: 200.0 mg/kg/injection, schedule: Q01DX001 (ip), vehicle: carboxymethylcellulose (CMC)
[13] = dose: 400.0 mg/kg/injection, schedule: Q01DX001 (ip), vehicle: carboxymethylcellulose (CMC)
[14] = dose: 400.0 mg/kg/injection, schedule: Q01DX001 (ip), vehicle: saline
[15] = dose: 5.0 mg/kg/injection, schedule: Q04DX003 (ip), vehicle: saline with Tween-80
[16] = dose: 10.0 mg/kg/injection, schedule: Q04DX003 (ip), vehicle: saline with Tween-80

Measured: T/C

CCCCCCCSc1ccc(C(=O)O)cc1
inactive: dose: 37.5 mg/kg/injection, schedule: Q01DX009 (ip), vehicle: saline 91 % of control | dose: 75.0 mg/kg/injection, schedule: Q01DX001 (ip), vehicle: acetone 102 % of control | dose: 75.0 mg/kg/injection, schedule: Q01DX009 (ip), vehicle: saline 97 % of control | dose: 75.0 mg/kg/injection, schedule: Q04DX003 (ip), vehicle: acetone 102 % of control | dose: 150.0 mg/kg/injection, schedule: Q01DX001 (ip), vehicle: acetone 95 % of control | dose: 150.0 mg/kg/injection, schedule: Q01DX009 (ip), vehicle: saline 90 % of control | dose: 150.0 mg/kg/injection, schedule: Q04DX003 (ip), vehicle: acetone 102 % of control | dose: 300.0 mg/kg/injection, schedule: Q01DX001 (ip), vehicle: acetone 98 % of control | dose: 300.0 mg/kg/injection, schedule: Q04DX003 (ip), vehicle: acetone 102 % of control

O=S(=O)(O)c1cccc2c(S(=O)(=O)O)cccc12
inactive: [1] 107 % of control | [2] 100 % of control | [3] 97 % of control

COc1cc2c(cc1OC)C(NC(C)C)CCCC2 (configuration not stated)
inactive: [4] 98 % of control | [5] 95 % of control

O=C(CBr)c1cccc2c1Nc1ccccc1S2
inactive: [6] 98 % of control

O=C(CCOCc1ccccc1)N1Cc2cc3ccccc3nc2C1=O
inactive: dose: 10.0 mg/kg/injection, schedule: Q07DX002 (ip), vehicle: alcohol 89 % of control | dose: 20.0 mg/kg/injection, schedule: Q07DX002 (ip), vehicle: alcohol 99 % of control | dose: 40.0 mg/kg/injection, schedule: Q07DX002 (ip), vehicle: alcohol 92 % of control | dose: 80.0 mg/kg/injection, schedule: Q07DX002 (ip), vehicle: alcohol 86 % of control

COc1cccc(OC)c1OC(=O)Nc1ccccc1C(F)(F)F
inactive: dose: 100.0 mg/kg/injection, schedule: Q01DX009 (ip), vehicle: saline 98 % of control | dose: 200.0 mg/kg/injection, schedule: Q01DX009 (ip), vehicle: saline 98 % of control | dose: 400.0 mg/kg/injection, schedule: Q01DX009 (ip), vehicle: saline 100 % of control

NC1=NC=NC(c2ccccc2)N1c1ccccc1F (configuration not stated)
inactive: dose: 25.0 mg/kg/injection, schedule: Q01DX001 (ip), vehicle: saline 101 % of control | dose: 50.0 mg/kg/injection, schedule: Q01DX001 (ip), vehicle: saline 96 % of control | [4] 104 % of control

CCOc1ccc(OCC)c(NC(=O)Nc2ccc(F)c([N+](=O)[O-])c2)c1
inactive: [7] 101 % of control | [8] 93 % of control | [9] 87 % of control

COC(=O)C1=C(O)C(=O)N(c2ccccc2)C1
inactive: dose: 100.0 mg/kg/injection, schedule: Q01DX001 (ip), vehicle: saline with Tween-80 88 % of control

CC12CCCCC1C1=C(CCCC1)CC2 (configuration not stated)
inactive: [10] 97 % of control | [11] 92 % of control | [12] 94 % of control | [13] 97 % of control

CS(=O)(=O)OC1CCCCC1Oc1ccc(Br)cc1 (configuration not stated)
inactive: dose: 100.0 mg/kg/injection, schedule: Q01DX001 (ip), vehicle: Klucel (hydroxypropylcellulose) (HPC) 106 % of control | [1] 101 % of control | dose: 200.0 mg/kg/injection, schedule: Q01DX001 (ip), vehicle: Klucel (hydroxypropylcellulose) (HPC) 104 % of control | [2] 113 % of control | dose: 400.0 mg/kg/injection, schedule: Q01DX001 (ip), vehicle: Klucel (hydroxypropylcellulose) (HPC) 103 % of control | [3] 98 % of control

NC(=S)N/N=C/c1cc2c(cc1[N+](=O)[O-])OCO2
inactive: [10] 98 % of control | [11] 101 % of control | [12] 93 % of control

CC(=O)OCC1OC(n2cc(C)c(=O)[nH]c2=O)C(Nc2ccc([N+](=O)[O-])cc2[N+](=O)[O-])C(OC(C)=O)C1OC(C)=O (configuration not stated)
inactive: [10] 97 % of control | [11] 94 % of control | [12] 94 % of control | [13] 89 % of control

O=c1[nH]nc(SC2CCCCC2)c(=O)[nH]1
inactive: [4] 108 % of control | [5] 108 % of control | [14] 106 % of control

CC(C)NC(=O)C1CC2c3cccc4[nH]c(Br)c(c34)CC2N(C)C1 (configuration not stated)
inactive: [15] 94 % of control | [16] 93 % of control | dose: 20.0 mg/kg/injection, schedule: Q04DX003 (ip), vehicle: saline with Tween-80 88 % of control

CC(=O)OCC1OC(SC2CCCCC2Br)C(OC(C)=O)C(OC(C)=O)C1OC(C)=O (configuration not stated)
inactive: [4] 101 % of control | [5] 104 % of control | [14] 106 % of control

CC(O)C(=O)[O][Hg][c]1ccccc1 (configuration not stated)
inactive: dose: 2.5 mg/kg/injection, schedule: Q01DX009 (ip), vehicle: saline with Tween-80 91 % of control | dose: 2.5 mg/kg/injection, schedule: Q04DX003 (ip), vehicle: saline with Tween-80 92 % of control | dose: 5.0 mg/kg/injection, schedule: Q01DX009 (ip), vehicle: saline with Tween-80 94 % of control | [15] 105 % of control | dose: 10.0 mg/kg/injection, schedule: Q01DX009 (ip), vehicle: saline with Tween-80 98 % of control | [16] 108 % of control

CC(=N\NS(=O)(=O)c1ccc(C)cc1)/C(C)=N/NS(=O)(=O)c1ccc(C)cc1
inactive: [6] 87 % of control | dose: 150.0 mg/kg/injection, schedule: Q01DX001 (ip), vehicle: saline 89 % of control | dose: 300.0 mg/kg/injection, schedule: Q01DX001 (ip), vehicle: saline 90 % of control

CCOC1=NCCCCC1OC(C)=O (configuration not stated)
inactive: [7] 107 % of control | [8] 104 % of control | [9] 95 % of control
